# Measurements published in PMC3409642 (Pharmaceutical research, 2012).
# Target: T1, UGT1A9 (Homo sapiens, UniProt O60656)
# T1 sequence (O60656 26-530): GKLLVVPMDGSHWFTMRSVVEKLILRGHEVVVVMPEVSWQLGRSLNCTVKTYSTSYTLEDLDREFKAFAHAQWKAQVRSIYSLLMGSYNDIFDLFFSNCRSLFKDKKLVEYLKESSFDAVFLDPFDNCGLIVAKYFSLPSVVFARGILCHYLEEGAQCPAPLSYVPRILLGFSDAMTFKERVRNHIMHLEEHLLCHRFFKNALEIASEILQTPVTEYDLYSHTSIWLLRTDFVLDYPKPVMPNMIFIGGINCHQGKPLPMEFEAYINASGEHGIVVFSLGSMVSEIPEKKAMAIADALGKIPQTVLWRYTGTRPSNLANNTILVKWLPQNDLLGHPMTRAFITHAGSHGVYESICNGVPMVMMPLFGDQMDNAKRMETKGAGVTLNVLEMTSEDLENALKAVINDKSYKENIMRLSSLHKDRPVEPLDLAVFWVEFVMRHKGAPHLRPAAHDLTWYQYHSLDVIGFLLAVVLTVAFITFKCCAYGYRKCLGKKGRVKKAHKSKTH
# Assay: not given
# Details: not given
row,Compound,CLint (Vmax/Km) [µL/min/mg]
1,"O=c1cc(-c2cccc(O)c2)oc2cc(O)c(O)cc12 [compound 36, 6,7,3′-Trihydroxflavone]",775
2,"Cc1cc(O)cc2oc(-c3ccccc3)cc(=O)c12 [compound 48, 7-Hydoxy-5-methylflavone]",5712
3,"O=c1c(O)c(-c2ccc(O)cc2)oc2ccccc12 [compound 64, 3,4′-Dihydroxyfavone]",14000
4,"O=c1c(O)c(-c2ccccc2)oc2ccc(O)cc12 [compound 65, 3,6-Dihydroxyfavone]",21000

# Same assay, conditions: human, recombinant enzyme
row,Compound,Log (CLint) (Actual)
1,"O=c1cc(-c2cccc(O)c2)oc2cc(O)c(O)cc12 [compound 36, 6,7,3′-Trihydroxflavone]",2.89
2,"Cc1cc(O)cc2oc(-c3ccccc3)cc(=O)c12 [compound 48, 7-Hydoxy-5-methylflavone]",3.76
3,"O=c1c(O)c(-c2ccc(O)cc2)oc2ccccc12 [compound 64, 3,4′-Dihydroxyfavone]",4.14
4,"O=c1c(O)c(-c2ccccc2)oc2ccc(O)cc12 [compound 65, 3,6-Dihydroxyfavone]",4.32

# Same assay, conditions: human, recombinant enzyme, pH 7.4
row,Compound,Log (CLint) (Actual)
1,"O=C(/C=C/c1ccccc1)c1ccccc1O [compound 5, 2′-Hydroxychalcone]",3.12
2,"O=c1cc(-c2ccccc2)oc2cccc(O)c12 [compound 34, 5-Hydroxyflavone]",2.09
3,"O=c1cc(-c2ccc(O)cc2)oc2cc(O)cc(O)c12 [compound 50, Apigenin]",3.23
4,"O=c1cc(-c2ccccc2)oc2cc(O)cc(O)c12 [compound 52, Chrysin]",3.96
5,"COc1c(O)cc2oc(-c3ccccc3)cc(=O)c2c1O [compound 57, OroxylinA]",2.94
6,"COc1cc(-c2oc3cc(O)cc(O)c3c(=O)c2O)ccc1O [compound 87, Isorhamnetin]",4.59

# Same assay, conditions: pH 7.4
row,Compound,Km [µM]
1,"O=c1cc(-c2cccc(O)c2)oc2cc(O)c(O)cc12 [compound 36, 6,7,3′-Trihydroxflavone]",3.01
2,"Cc1cc(O)cc2oc(-c3ccccc3)cc(=O)c12 [compound 48, 7-Hydoxy-5-methylflavone]",0.94
3,"O=c1c(O)c(-c2ccc(O)cc2)oc2ccccc12 [compound 64, 3,4′-Dihydroxyfavone]",0.13
4,"O=c1c(O)c(-c2ccccc2)oc2ccc(O)cc12 [compound 65, 3,6-Dihydroxyfavone]",0.62

# Target: T1, UGT1A9
# Assay: Kinetic profiling of glucuronidation by expressed human UGT1A9
# Details: log of experimental CLint (μl/mg/min)
row,Compound,Log (CLint) (Actual)
1,"COc1ccccc1-c1oc2ccccc2c(=O)c1O [compound 72, 3-Hydroxy-2′-methoxyflavone]",4.25
2,"COc1cccc(-c2oc3ccccc3c(=O)c2O)c1 [compound 73, 3-Hydroxy-3′-methoxyflavone]",4.66
3,"COc1ccc(-c2oc3ccccc3c(=O)c2O)cc1 [compound 74, 3-Hydroxy-4′-methoxyflavone]",4.51
4,"COc1cc(OC)c2c(=O)c(O)c(-c3ccccc3)oc2c1 [compound 75, 3-Hydroxy-5,7-dimethoxyflavone]",4.40
5,"COc1cccc2oc(-c3ccccc3)c(O)c(=O)c12 [compound 76, 3-Hydroxy-5-methoxyflavone]",4.36
6,"COc1ccc(-c2oc3ccc(OC)cc3c(=O)c2O)cc1 [compound 77, 3-Hydroxy-6,4′-dimethoxyflavone]",4.71
7,"COc1ccc2oc(-c3ccccc3)c(O)c(=O)c2c1 [compound 78, 3-Hydroxy-6-methoxyflavone]",4.86
8,"COc1ccc(-c2oc3cc(OC)ccc3c(=O)c2O)cc1 [compound 79, 3-Hydroxy-7,4′-dimethoxyflavone]",4.66
9,"COc1ccc2c(=O)c(O)c(-c3ccccc3)oc2c1 [compound 80, 3-Hydroxy-7-methoxyflavone]",4.57
10,"O=c1c(O)c(-c2ccccc2)oc2ccccc12 [compound 81, 3-Hydroxyflavone]",3.84
11,"Cc1ccc2oc(-c3ccc4c(c3)OCO4)c(O)c(=O)c2c1 [compound 82, 3-Hydroxy-6-methyl-3′,4′-methylenedioxyflavone]",4.96
12,"O=c1c(O)c(-c2ccccc2O)oc2cc(O)cc(O)c12 [compound 83, Datiscetin]",2.00
13,"COc1cc(-c2oc3cc(O)ccc3c(=O)c2O)ccc1O [compound 86, Geraldol]",3.60
14,"O=c1c(O)c(-c2ccc(O)cc2O)oc2cc(O)cc(O)c12 [compound 89, Morin]",1.77
15,"COc1cc(O)c2c(=O)c(O)c(-c3ccc(O)c(O)c3)oc2c1 [compound 93, Rhamnetin]",4.65
16,"COc1cc2c(=O)c(-c3ccccc3)coc2cc1O [compound 98, 7-Hydroxy-6-methoxyisoflavone]",2.57
17,"COc1ccc2c(=O)c(-c3ccccc3)coc2c1O [compound 99, 8-Hydroxy-7-methoxyisoflavone]",3.57
18,"Oc1ccc([C@H]2COc3cc(O)ccc3C2)cc1 [compound 103, Equol]",0.57
19,"COc1ccc(-c2coc3cc(O)ccc3c2=O)cc1 [compound 104, Formononetin]",1.48
20,"COc1cc2c(=O)c(-c3ccc(O)cc3)coc2cc1O [compound 106, Glycitein]",2.44
21,"Oc1ccc2c(c1)OC[C@H]1c3cc4c(cc3O[C@@H]21)OCO4 [compound 107, Maackiain]",1.87
22,"COc1cc(O)c2c(=O)c(-c3ccc(O)cc3)coc2c1 [compound 108, Prunetin]",2.25

row,Compound,Log (CLint) (Actual)
1,"Oc1ccc(Cl)cc1 [compound 111, 4-Chlorophenol]",1.98
2,"Oc1ccc(C2CCCC2)cc1 [compound 112, 4-Cyclopentylphenol]",1.78
3,"CCOc1ccc(O)cc1 [compound 113, 4-Ethoxyphenol]",0.92
4,"CCc1ccc(O)cc1 [compound 114, 4-Ethylphenol]",1.87
5,"Oc1ccc(F)cc1 [compound 115, 4-Fluorophenol]",1.18
6,"COc1ccc(O)cc1 [compound 118, 4-Methoxyphenol]",1.18
7,"O=[N+]([O-])c1ccc(O)cc1 [compound 120, 4-Nitrophenol]",1.56
8,"CC(=O)c1ccc(O)cc1 [compound 121, 4-Hydroxyacetophenone]",1.15
9,"O=C(c1ccccc1)c1ccc(O)cc1 [compound 122, 4-Hydroxybenzophenone]",1.83
10,"Oc1ccc(-c2ccccc2)cc1 [compound 123, 4-Phenylphenol]",1.34
11,"CCCOc1ccc(O)cc1 [compound 125, 4-Propoxyphenol]",1.00
12,"CCCc1ccc(O)cc1 [compound 126, 4-n-Propylphenol]",1.62
13,"CCCCOC(=O)c1ccc(O)cc1 [compound 129, Butyl-4-hydroxybenzoate]",1.51
14,"COc1ccc(/C=C\c2cc(OC)c(OC)c(OC)c2)cc1O [compound 136, Combretastatin A4]",3.33
15,"COc1cc(/C=C/c2ccc(O)cc2)cc(OC)c1 [compound 137, Pterostilbene]",0.05
16,"Oc1ccc(/C=C/c2cc(O)cc(O)c2)cc1 [compound 138, Resveratrol]",1.8
17,"CCN(CC)C(=O)/C(C#N)=C/c1cc(O)c(O)c([N+](=O)[O-])c1 [compound 140, Entacapone, reference compound]",4.01
18,"O=C1[C@H](CC[C@H](O)c2ccc(F)cc2)[C@@H](c2ccc(O)cc2)N1c1ccc(F)cc1 [compound 141, Ezetimibe, reference compound]",−0.56
19,"COc1c(C)c2c(c(O)c1C/C=C(\C)CCC(=O)O)C(=O)OC2 [compound 142, Mycophenolic Acid, reference compound]",1.96
20,"Cc1ccc(C(=O)c2cc(O)c(O)c([N+](=O)[O-])c2)cc1 [compound 145, Tolcapone, reference compound]",2.62
21,(−)-Epigallocatechingallate [1.a],2.20

# Same assay, conditions: log of experimental CLint (μl/mg/min); listed as 1.b
row,Compound,Log (CLint) (Actual)
1,(−)-Epigallocatechingallate [1.a],2.81
